Source: article PMC2765968, “A novel inhibitor of Chlamydophila pneumoniae protein kinase D (PknD) inhibits phosphorylation of CdsD and suppresses bacterial replication” (BMC Microbiology, 2009)

Molecular target: T1, CdsN (GST-CdsN) (Chlamydia pneumoniae, UniProt A0ABN3YQA5)
T1 construct: gene yopN; GST tag kept, eluted from glutathione-agarose
T1 sequence (A0ABN3YQA5 1-442): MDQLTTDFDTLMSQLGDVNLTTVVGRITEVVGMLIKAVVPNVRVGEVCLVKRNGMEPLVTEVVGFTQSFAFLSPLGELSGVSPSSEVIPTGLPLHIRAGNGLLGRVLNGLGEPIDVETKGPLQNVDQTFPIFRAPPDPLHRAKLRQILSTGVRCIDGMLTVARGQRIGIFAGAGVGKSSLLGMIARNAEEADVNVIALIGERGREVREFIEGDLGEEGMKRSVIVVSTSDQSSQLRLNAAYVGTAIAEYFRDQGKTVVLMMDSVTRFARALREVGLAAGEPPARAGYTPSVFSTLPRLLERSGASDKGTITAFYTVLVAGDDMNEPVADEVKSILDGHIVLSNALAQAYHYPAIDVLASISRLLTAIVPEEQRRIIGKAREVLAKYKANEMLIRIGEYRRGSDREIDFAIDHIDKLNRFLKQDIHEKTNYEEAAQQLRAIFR
Assay: ATP hydrolysis, malachite green phosphate assay
Format: biochemical
Settings: […] ATP, […] Tris-HCl pH […] MgCl2, […] KCl, […] °C, […] min

## Nc1ncnc2c1ncn2[C@@H]1O[C@H](COP(=O)(O)OP(=O)(O)OP(=O)(O)O)[C@@H](O)[C@H]1O [ATP]
  ATP hydrolysis, malachite green phosphate assay: ATP hydrolysis by GST-CdsN purified from glutathione-agarose beads was measured using a malachite green assay
